Experimental data taken from paper PMC9930429, “Wogonin attenuates the pathogenicity of Streptococcus pneumoniae by double‐target inhibition of Pneumolysin and Sortase A” (Journal of Cellular and Molecular Medicine, 2023).

Molecular target: Pneumolysin (PLY) (Streptococcus pneumoniae, UniProt Q04IN8)
Assay: biochemical

Pneumolysin (PLY), sequence (Q04IN8 2-471 limits assumed): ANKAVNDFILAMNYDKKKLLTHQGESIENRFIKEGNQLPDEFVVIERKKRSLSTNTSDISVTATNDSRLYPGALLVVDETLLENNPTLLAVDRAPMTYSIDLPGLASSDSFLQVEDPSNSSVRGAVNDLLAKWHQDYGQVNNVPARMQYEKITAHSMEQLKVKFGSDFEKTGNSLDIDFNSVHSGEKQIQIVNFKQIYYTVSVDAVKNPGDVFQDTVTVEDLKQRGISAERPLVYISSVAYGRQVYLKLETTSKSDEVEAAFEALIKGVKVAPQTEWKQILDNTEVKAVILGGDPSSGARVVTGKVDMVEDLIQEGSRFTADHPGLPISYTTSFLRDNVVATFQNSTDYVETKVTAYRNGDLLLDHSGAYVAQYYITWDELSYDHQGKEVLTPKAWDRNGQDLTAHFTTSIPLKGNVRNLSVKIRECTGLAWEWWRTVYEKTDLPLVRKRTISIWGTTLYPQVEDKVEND

Structure (SMILES): COc1c(O)cc(O)c2c(=O)cc(-c3ccccc3)oc12 [wogonin]
- IC50: 186 µM
